The values that follow come from US6670407B2, “Biofunctional polymers prepared in supercritical fluid” (University of Nottingham, priority 1997, dated 2003).

A short description of this test: hydrogen peroxide decomposition assay of catalase recovered from PLGA matrices. The note with it: catalase removed from PLGA matrices by degradation of the polymer; processed in supercritical CO2 at 45° C. and 200 bar, 30 minutes. The format is biochemical. Here is the method:
In a specific example of the use of the invention particles of the protein catalase (ca mean diameter 50 micron) are mixed with the biodegradable polymer poly(DL-lactide-co-glycolide) (PLGA) as per example 3, in the presence of super critical CO2 at 45° C. and 200 bar. After agitation for 30 minutes, the autoclave was depressurized leading to solid dispersions of a monolith form, in which catalase particles are intimately mixed with the biodegradable polymer. FIGS. 3a) and 3b) are scanning electron microscopy images at respective higher and lower magnifications of 10 micron (particles and micropores visible) and 50 micron (particles embedded in “channels”).
Removal of the catalase from the matrices by degradation of the polymer enabled the activity of the enzyme to be quantified using a hydrogen peroxide decomposition assay.

In the case of catalase, the “activity of the enzyme after SCF processing” value is “lost no appreciable activity”.
